The text below walks through data of US10351577B2, “Ether analogues of galiellalactone” (Glactone Pharma Development AB, priority 2015, dated 2019).

Series [1] deals with LNCaP-IL6. Nature of the series: WST-1 cell proliferation assay on IL-6 stimulated LNCaP. The following applies: for activity at 10 µM: Homo sapiens, LNCaP, 72 h, percent of untreated control cells, read-out: Remaining cell proliferation (%) LNCaP-IL6; for Difference in cell proliferation @ 10 μM (%) (Selectivity) Δ LNCaP − LNCaPIL6: LNCaP minus LNCaP-IL6. Type of series: cell-based. Here is the method: (§1) The functional activity of the example compounds in comparison to galiellalactone was evaluated using a WST-1 proliferation assay (J. Biol. Chem. 2014, 289:15969-15978) on DU145, LNCaP or IL-6 stimulated LNCaP.
(§2) The cells were cultured in 96-well plates (2000 cells/well in 200 μl of medium) and allowed to set for 24 h. The cells were treated with 10 μM of an example compound or galiellalactone for 72 h. Samples were made in triplicate. 20 μl WST-1 solution (Roche Applied Science) was added per well and incubated at 37° C. for 4 h. The absorbance of each well was measured using a scanning multi-well spectrophotometer, ELISA reader at a wavelength of 450 nm and reference wavelength of 690 nm. The results presented in Tables 2 and 3 below are presented as percent of untreated control cells.
A general note: Tetrazolium dyes change colour on reduction, which living cells bring about.

In a further series the test system is LNCaP. Nature of the series: WST-1 cell proliferation assay on LNCaP. Type of series: cell-based. The following applies: Homo sapiens, 72 h, percent of untreated control cells, read-out: Remaining cell proliferation (%) LNCaP. Here is the method:
as §1, §2

The subject of series [2] is DU145. Kind of series: WST-1 cell proliferation assay on DU145. The class given is cell-based. The conditions noted are these: for activity at 10 µM: Homo sapiens, DU-145, 72 h, percent of untreated control cells, read-out: Remaining cell proliferation (%) DU145; for Difference in cell proliferation @ 10 μM (%) (Selectivity) Δ LNCaP − DU145: LNCaP minus DU145. Here is the method:
as §1, §2

For the next series, the system named is STAT1. Nature of the series: STAT1 luciferase reporter gene assay in HeLa cells stimulated with IFNg. The following applies: Homo sapiens, M-HeLa, IFNg overnight. Type of series: cell-based. The method, then:
In order to further asses the properties of the ether analogues of galiellalactone, the STAT1 activity was determined for some of the novel analogues.

Series [3] has as its system LNCaP-IL6. Nature of the series: WST-1 cell proliferation assay on IL-6 stimulated LNCaP. The class given is cell-based. The conditions noted are these: Homo sapiens, dose response study.
For series [4], the system named is DU145. Nature of the series: WST-1 cell proliferation assay on DU145. Type of series: cell-based. The following applies: for IC50: Homo sapiens, DU-145, dose response study, DU145.
The test system of a further series is IL-6/STAT3 signaling. The conditions noted are these: cited from earlier work.
Series [5] can be described thus: Comparative pharmacokinetic study, single oral dose, plasma by LC-MS/MS. Type of series: in vivo. The conditions noted are these: mouse, CD1 mice, single oral gavage 10 mg/kg. The method, then: A pharmacokinetic study was performed in CD1 mice to establish plasma exposure following administration of single oral doses of galiellalactone and example 20. Sample analysis was by LC-MS/MS.
Dose solutions were prepared at a drug concentration of 0.5 mg/mL in 5% DMSO in 50 mM citrate buffer (citric acid/sodium citrate pH 4.0) and administered as a 20 mL/kg oral gavage (10 mg/kg).
AUC denotes the plasma exposure of the compound measured with time. More specifically, AUC 0-t is the area under the plasma drug concentration/time curve from 0 minutes to last quantifiable data point. AUC 0-∞ is the area under the plasma drug concentration/time curve from 0 minutes extrapolated to infinity.

A word on the inhibition: it is the relative decrease from the control value, in per cent. Usually IC50 stands for the concentration at which inhibition is half-maximal. The term AUC(0-t) denotes the area under the concentration-time curve up to a stated or last time point. The term AUC(0-inf) denotes the area under the concentration-time curve extrapolated to infinity. The half-life is the time needed for the level to fall by half in the phase considered.

As for `Cc1ccc(COC23C4=CC(C)CC2CCC3OC4=O)cn1` (stereo in doubt) [Example 1, (4R,5aS,7aS,7bR)-5,5a,6,7,7a,7b-hexahydro-7b-[(6-methyl-3-pyridinyl)methoxy]-4-methyl-indeno[1,7-bc]furan-2(4H)-one], in the series with LNCaP-IL6 [1], the activity at 10 µM was 8.6% and the “Difference in cell proliferation @ 10 μM (%) (Selectivity) Δ LNCaP − LNCaPIL6” value is given as 54.6%. For the same molecule, in the series with LNCaP, the activity at 10 µM was 63.2%. In the series on DU145 [2], the activity at 10 µM stood at 12.9% and the “Difference in cell proliferation @ 10 μM (%) (Selectivity) Δ LNCaP − DU145” value (shortened to “Difference … (%) (Selectivity) Δ LNCaP − DU145”) was determined as 50.3%. For the same molecule, in the series with STAT1, at 10 µM the inhibition was 14%.
Take `CC1C=C2C(=O)OC3CCC(C1)C23OCc1ccc(Oc2ccccc2)nc1` (stereo in doubt) [Example 2, (4R,5aS,7aS,7bR)-5,5a,6,7,7a,7b-hexahydro-7b-[(6-phenoxy-3-pyridinyl)methoxy]-4-methyl-indeno[1,7-bc]furan-2(4H)-one]: in the series with LNCaP-IL6 [1], the activity at 10 µM was determined as 18% and the “Difference in cell proliferation @ 10 μM (%) (Selectivity) Δ LNCaP − LNCaPIL6” value turned out to be 68%. Also, the activity at 10 µM in the series with LNCaP was found to be 86%. For the same molecule, in the series with DU145 [2], the activity at 10 µM was found to be 36.1% and the “Difference … (%) (Selectivity) Δ LNCaP − DU145” value worked out at 49.9%. In the series with STAT1, 10 µM produced 1% inhibition.
Regarding `CC1C=C2C(=O)OC3CCC(C1)C23OCCc1cccnc1` (stereo in doubt) [Example 3, (4R,5aS,7aS,7bR)-5,5a,6,7,7a,7b-hexahydro-7b-[2-(3-pyridinyl)-ethoxy]-4-methyl-indeno[1,7-bc]furan-2(4H)-one], in the series on LNCaP-IL6 [1], the activity at 10 µM was determined as 8% and the “Difference in cell proliferation @ 10 μM (%) (Selectivity) Δ LNCaP − LNCaPIL6” value is listed as 60.6%. Also, the activity at 10 µM in the series on LNCaP amounted to 68.6%. Further, in the series on DU145 [2], the activity at 10 µM was 18.7% and the “Difference … (%) (Selectivity) Δ LNCaP − DU145” value stood at 49.9%. For the same molecule, in the series with STAT1, at 10 µM the inhibition was 38%.
As to `Cc1cnc(COC23C4=CC(C)CC2CCC3OC4=O)cn1` (stereo in doubt) [Example 4, (4R,5aS,7aS,7bR)-5,5a,6,7,7a,7b-hexahydro-7b-[(5-methyl-2-pyrazinyl)methoxy]-4-methyl-indeno[1,7-bc]furan-2(4H)-one], in the series on LNCaP-IL6 [1], the activity at 10 µM amounted to 10.7% and the “Difference in cell proliferation @ 10 μM (%) (Selectivity) Δ LNCaP − LNCaPIL6” value is given as 44.8%. For the same molecule, the activity at 10 µM in the series with LNCaP was 55.5%. For the same molecule, in the series with DU145 [2], the activity at 10 µM came out at 11.4% and the “Difference … (%) (Selectivity) Δ LNCaP − DU145” value is recorded as 44.1%. Moreover, the inhibition at 10 µM with STAT1 was 12%.
`COc1ccnc(COC23C4=CC(C)CC2CCC3OC4=O)c1` (stereo in doubt) [Example 5, (4R,5aS,7aS,7bR)-5,5a,6,7,7a,7b-hexahydro-7b-[(4-methoxy-2-pyridinyl)methoxy]-4-methyl-indeno[1,7-bc]furan-2(4H)-one]: the activity at 10 µM with LNCaP-IL6 [1] came to 15%; with LNCaP it was 86%; in the series with DU145 [2], 19%. Also, the “Difference in cell proliferation @ 10 μM (%) (Selectivity) Δ LNCaP − LNCaPIL6” value in the series with LNCaP-IL6 [1] turned out to be 71%. In the series on DU145 [2], the “Difference … (%) (Selectivity) Δ LNCaP − DU145” value was 67%. Besides, in the series with STAT1, the inhibition at 10 µM turned out to be 16%.
In the case of `COC(=O)c1cccc(COC23C4=CC(C)CC2CCC3OC4=O)n1` (stereo in doubt) [Example 6, (4R,5aS,7aS,7bR)-5,5a,6,7,7a,7b-hexahydro-7b-[(6-methoxycarbonyl-2-pyridinyl)methoxy]-4-methyl-indeno[1,7-bc]furan-2(4H)-one], in the series on LNCaP-IL6 [1], the activity at 10 µM was determined as 15.9% and the “Difference in cell proliferation @ 10 μM (%) (Selectivity) Δ LNCaP − LNCaPIL6” value amounted to 49.7%. Further, the activity at 10 µM in the series on LNCaP stood at 65.6%. In addition, in the series with DU145 [2], the activity at 10 µM turned out to be 16.6% and the “Difference … (%) (Selectivity) Δ LNCaP − DU145” value was 49%.
Taken in the same sequence, the figures for `COc1ncccc1COC12C3=CC(C)CC1CCC2OC3=O` (stereo in doubt) [Example 7, (4R,5aS,7aS,7bR)-5,5a,6,7,7a,7b-hexahydro-7b-[(2-methoxy-3-pyridinyl)methoxy]-4-methyl-indeno[1,7-bc]furan-2(4H)-one] were 7%, 52.3%, 59.3%, 16.7% and 42.6%.
Taken in the same sequence, the figures for `Cc1ncccc1COC12C3=CC(C)CC1CCC2OC3=O` (stereo in doubt) [Example 8, (4R,5aS,7aS,7bR)-5,5a,6,7,7a,7b-hexahydro-7b-[(2-methyl-3-pyridinyl)methoxy]-4-methyl-indeno[1,7-bc]furan-2(4H)-one] were 3%, 51.5%, 54.5%, 10% and 44.5%.
For `Cc1ccc(COC23C4=CC(C)(F)CC2CCC3OC4=O)cn1` (stereo in doubt) [Example 26, (4R,5aS,7aS,7bR)-5,5a,6,7,7a,7b-hexahydro-7b-[(6-methyl-3-pyridinyl)methoxy]-4-fluoro-4-methyl-indeno[1,7-bc]furan-2(4H)-one], the IC50 with LNCaP-IL6 [3] was 1060 nM; with DU145 [4], 1530 nM. Further, the “Selectivity at IC90 against DU145 and LNCaP-IL6 cell proliferation over LNCaP proliferation” value in the series with DU145 [4] (FIG. 1B dose response curves) is listed as “very good selectivity”.
In the case of `C[C@@H]1C=C2C(=O)O[C@@H]3CCC(C1)[C@]23OCc1ccc(NC(=O)C(C)(C)C)nc1` (stereo partly drawn) [Example 9, (4R,5aS,7aS,7bR)-5,5a,6,7,7a,7b-hexahydro-7b-[(6-[(2,2-dimethyl-1-oxopropyl)amino]-3-pyridinyl]methoxy]-4-methyl-indeno[1,7-b]c furan-2(4H)-one], in the series on LNCaP-IL6 [1], the activity at 10 µM is 2.8% and the “Difference in cell proliferation @ 10 μM (%) (Selectivity) Δ LNCaP − LNCaPIL6” value stood at 64.8%. The activity at 10 µM in the series on LNCaP amounted to 67.6%. Also, in the series with DU145 [2], the activity at 10 µM is 9.7% and the “Difference … (%) (Selectivity) Δ LNCaP − DU145” value is given as 57.9%.
Regarding `C[C@@H]1C=C2C(=O)O[C@@H]3CCC(C1)[C@]23OCc1ccc(N2CCOCC2)nc1` (stereo partly drawn) [Example 15, (4R,5aS,7aS,7bR)-5,5a,6,7,7a,7b-hexahydro-7b-[(6-(N-morpholino)-3-pyridinyl)methoxy]-4-methyl-indeno[1,7-bc]furan-2(4H)-one], in the series on LNCaP-IL6 [1], the activity at 10 µM worked out at 6.5% and the “Difference in cell proliferation @ 10 μM (%) (Selectivity) Δ LNCaP − LNCaPIL6” value stood at 69.6%. Moreover, in the series on LNCaP, the activity at 10 µM amounted to 76.1%. Moreover, in the series with DU145 [2], the activity at 10 µM was determined as 9.6% and the “Difference … (%) (Selectivity) Δ LNCaP − DU145” value stood at 66.6%. The same molecule gave an inhibition at 10 µM with STAT1 of 53%.
Regarding `C[C@@H]1C=C2C(=O)O[C@@H]3CC[C@H](C1)[C@]23O` [Galiellalactone, (−)-Galiellalactone], the figures for the activity at 10 µM with LNCaP-IL6 [1], in the series on LNCaP and with DU145 [2] were 4.7%, 43.6% and 10.8%, respectively. The “Difference in cell proliferation @ 10 μM (%) (Selectivity) Δ LNCaP − LNCaPIL6” value with LNCaP-IL6 [1] was found to be 38.9%. In addition, the IC50 in the series on LNCaP-IL6 [3] was 1160 nM; in the series on DU145 [4] it was 2520 nM. For the same molecule, the “Difference … (%) (Selectivity) Δ LNCaP − DU145” value with DU145 [2] came out at 32.8%. In the series on STAT1, this molecule had an inhibition at 10 µM of 62%. The “Inhibition of IL-6/STAT3 signaling” value in the series with IL-6/STAT3 signaling is listed as “submicromolar”. In series [5] (0 min to last quantifiable data point), the area under the curve AUC(0-t) was 82 ng·h/mL. In addition, in series [5] (extrapolated to infinity), the total exposure AUC(0-inf) is 87 ng·h/mL. Besides, in series [5] (read-out: Apparent half-life (converted)), the half-life is 1.2 h.
